In patent US20240239790A1, “7-Morpholino-1,6-Naphthyridin-5-yl Derivatives and Pharmaceutical Compositions Thereof Useful as DNA-PK Inhibitor” (adMare Therapeutics Society, priority 2021, published 2024):
Read-outs that look alike come from different tables or passages of the source. Blank lines part the entries; values can stand above or below the molecule they belong to.

Tests used:
[1] = molecular target: T1, DNA-PK phosphorylation at Serine 2056 (Homo sapiens, UniProt P78527); experiment: Cellular Assay for Inhibition of DNA-PK Phosphorylation at Serine 2056 in FaDu cells (sandwich ELISA, neocarzinostatin); assay type: cell-based; conditions: pSer2056 DNA-PK
T1 construct: FaDu cells were purchased from ATCC; host or cells: FaDu
Outline: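 FaDu cells pre-treated with compound (0.3% DMSO) for 1 h, then neocarzinostatin 1 μg/mL final added for 2 h to induce DSBs. Protein-normalised lysates read by sandwich ELISA for total and pSer2056 DNA-PK; % inhibition normalised between DMSO and NCS controls, IC50 from variable-slope log(inhibitor) fit.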

[2] = molecular target: T2, DNA-PK (Homo sapiens, UniProt P78527); experiment: DNA-PK Assay for Biochemical Enzymatic Inhibition (ADP Glo Kinase assay); conditions: DNA-PK enzyme
T2 construct: purchased Invitrogen PR9107A
Procedure: A biochemical assay was performed to identify IC50 values against DNA-PK activity in a two-step reaction with a kinase reaction followed by ADP Glo™ Kinase assay Kit (Promega V9102).
Three-fold serial dilutions of compounds in DMSO were prepared in kinase assay buffer (50 mM HEPES pH 7.5, 20 mM MgCl2, 100 mM KCl, 50 μM DTT, 10 μg/ml calf thymus DNA, 0.01% Tween 20). Kinase assay buffer was used to prepare compound treatments to 0.02% DMSO (dimethyl sulphoxide) content. DMSO controls were prepared to produce a maximum and minimum luminescence signal for normalization. Substrate (Anaspec, AS-60210-5) and ATP (Promega V9102) and ATP mix was prepared by dilution in kinase assay buffer for 434.4 μM and 64.4 μM final assay concentrations, respectively. Compounds and control were added to 25 ng DNA-PK enzyme (Invitrogen, PR9107A) diluted in kinase buffer in assay plate (Corning 267459) and incubated for 15 minutes at room temperature prior to addition of substrate and ATP mix.
Throughout the assay, each time a reagent was added to the microplate, it was centrifuged for 1 minute at 1300 rcf. All reagents were added, and incubations carried out at room temperature. The reaction was then incubated for 60 minutes. ADP-ATP standards at 0, 4, 10, 40, 80, and 100% ADP (prepared as specified in the ADP Glo™ Kinase assay kit) were also added to the microplate at a volume equal to the total kinase reaction. The ADP Glo™ Kinase Assay kit was then used to quantify DNA-PK activity: following the 60-minute incubation, a 1:1 volume of ADP Glo reagent was added to all wells, then following a further 45-minute incubation, a 1:1 volume of Kinase Detection Reagent was added to all wells. After this two-step assay, plates were incubated in a Synergy-Neo2 plate reader for 30 minutes with gentle shaking, followed by endpoint luminescent read Luminescence data was normalized by subtracting the background signal and expressing all background-adjusted values as a percentage of the average maximum signal. The data was then expressed as percent inhibition by subtracting from 100% (i.e. maximum luminescent signal will be 0% inhibition) and the resulting data plotted against ten concentration points on a logarithmic scale, using GraphPad Prism. Non-linear regression analysis was performed on each concentration response curve and the log [inhibitor] vs response—variable slope (four parameters) equation was selected to generate IC50 values.

[3] = test system: pDNA-PK induction in HCT116 tumour spheroids; experiment: Multicellular tumour spheroid + radiation, pDNA-PK (ser2056) inhibition, immunohistochemical endpoint, HCT116; assay type: cell-based; conditions: 20 Gy, 20% O2
Procedure: Multicellular tumour spheroids determination of compound inhibition of pDNA-PK induction following radiation. Tumour spheroids were grown to approximately 0.5 mm in diameter and irradiated with 20 Gy in combination with inhibitor test compounds to determine their potency. Inhibitor concentration for 50% reduction in pDNA-PK induction (IC50) was determined via immunohistochemical staining in spheroid cryosections taken 2 hours following radiation.
(§1) Spheroid+radiation pDNA-PK. Radiation: 20 Gy. Drug: serial dilution 5 or 10 μM down to 3.5 nM (11 wells). Spheroids: 3-6 spheroids per well (300-500 μm diameter). 20% 02 and 5% CO2. 96 well plate format.
Protocol: pre-incubate 1 hours with drug, irradiate with 20 Gy, post-incubate 2 hours with drug, freeze and cryosection ×3 replicates.
Endpoint: fluorescent immunostin pDNA-PK ser2056 and image on microscope.
Analysis: determine EC50 concentration that decreases pDNA-PK induction by 50% after radiation.
Multicellular tumour spheroids determination of compound inhibition of pDNA-PK induction following radiation. Tumour spheroids were grown to approximately 0.5 mm in diameter and irradiated with 20 Gy in combination with inhibitor test compounds to determine their potency. Inhibitor concentration for 50% reduction in pDNA-PK induction (IC50) was determined via immunohistochemical staining in spheroid cryosections taken 2 hours following radiation. For cell survival endpoint 8 Gy radiation was used and 3 hours following radiation spheroids were dissociated, counted and plated for colony forming endpoint.
as §1, with “format. Endpoint: fluorescent immunostain pDNA-PK ser2056 and image on microscope. Analysis: determine EC50 concentrations that decreases pDNA-PK induction by 50% after irradiation.” for “format.”
Multicellular tumour spheroids were used to determine potency of test compounds in a 3D tissue environment using inhibition of pDNA-PK induction following radiation or cell survival as the endpoint. For the pDNA-PK endpoint HCT116 or FaDU tumour spheroids were grown to approximately 0.5 mm in diameter and irradiated with 20 Gy in combination with inhibitor test compounds to determine their potency. Experiments were carried out in 96 well plates containing 0.7 mls of MEM media containing 10% FBS and 10 mM glucose under 20% O2 & 5% CO2 at 37° C. Following dilution of compounds 1:1000 from DMSO stocks, compounds were serially diluted from 10 μM down to 3.5 nM and 5-10 spheroids added. 96 well plates were constantly stirred to avoid spheroids settling during the course of the experiment. The inhibitor concentration for 50% reduction in pDNA-PK induction (EC50) was determined via immunohistochemical staining in spheroid cryosections taken 2 hours following radiation using anti-pDNA-PK (ser 2056) and fixed immediately in formalin following sectioning. For cell survival endpoint 8 Gy radiation was used and, 3 hours following radiation, spheroids were dissociated, counted and plated for colony forming endpoint. Data presented in the table compound potency as EC50 [μM].

[4] = test system: pH2AX induction in HCT116 ATM-/- multicellular tumour spheroids; experiment: Prodrug Radiation Sensitization in Multicellular Tumour Spheroids, inhibition of pH2AX induction following radiation; assay type: cell-based
Outline: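 HCT116 and FaDu spheroids (~0.5 mm diameter), ATM-deficient lines included, in MEM/10% FBS/10 mM glucose at 37 °C under 20% vs 5% oxygen with stirring. Prodrugs 10 μM down to 3.5 nM, 20 Gy irradiation. pDNA-PK (ser 2056) or pH2AX (ser 139) scored in formalin-fixed cryosections 1 or 2 h post-radiation.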

[5] = neocarzinostatin 1 μg/mL, Table 1
[6] = 2 hours following radiation, Example 9 Study 2, read-out: Spheroid Cell line: HCT116 Immunohistochemical endpoint pDNA-PK inhibition EC50
[7] = Spheroid, Cell Line: HCT115 (so in the source), 2 hours following radiation, Example 7, read-out: EC50, Immunohistochemical endpoint, pDNA-PK inhibition
[8] = spheroids, Example 8, read-out: Cell line: HCT116 Immunohistochemical endpoint pDNA-PK inhibition EC50
[9] = Homo sapiens, HCT-116, 2 hours following radiation, Example 9 Study 2, read-out: Spheroid Cell line: HCT116 Immunohistochemical endpoint pDNA-PK inhibition EC50
[10] = Homo sapiens, HCT-116, Spheroid, Cell Line: HCT115 (so in the source), 2 hours following radiation, Example 7, read-out: EC50, Immunohistochemical endpoint, pDNA-PK inhibition

Molecule: Cn1cc([C@H]2CC[C@@H](Oc3nc(N4CCOCC4)cc4ncc(OCCN5CCOCC5)cc34)CC2)cn1 [Compound 6, 4-(5-(((1s,4s)-4-(1-methyl-1H-pyrazol-4-yl)cyclohexyl)oxy)-3-(2-morpholinoethoxy)-1,6-naphthyridin-7-yl)morpholine]
- IC50 [1, 5]: 100 to 1000 nM
- IC50 ([2]; Table 1): 10 to 150 nM

Molecule: N=C(N)N[C@H]1CC[C@@H](Oc2nc(N3CCOCC3)cc3ncccc23)CC1 [Compound 16, 1-((1s,4s)-4-((7-morpholino-1,6-naphthyridin-5-yl)oxy)cyclohexyl)guanidine]
- IC50 [1, 5]: 1000 to 10000 nM
- IC50 ([2]; Table 1): 1 to 10 nM
- EC50 [3, 6]: 10000 to 100000 nM
- EC50 [3, 7]: 10000 to 100000 nM
- EC50 [3, 8]: 10000 to 100000 nM

Molecule: CN(C)C(=O)COc1ccc(N[C@H]2CC[C@@H](Oc3nc(N4CCOCC4)cc4ncccc34)CC2)nn1 [Compound 57, N,N-dimethyl-2-((6-(((1s,4s)-4-((7-morpholino-1,6-naphthyridin-5-yl)oxy)cyclohexyl)amino)pyridazin-3-yl)oxy)acetamide]
- IC50 [1, 5]: 10000 to 30000 nM
- IC50 ([2]; Table 1): 10 to 150 nM

Molecule: O=C(O)COc1cnc(N[C@H]2CC[C@@H](Oc3nc(N4CCOCC4)cc4ncccc34)CC2)nc1 [Compound 59, 2-((2-(((1s,4s)-4-((7-Morpholino-1,6-naphthyridin-5-yl)oxy)cyclohexyl)amino)pyrimidin-5-yl)oxy)acetic acid]
- IC50 [1, 5]: 10000 to 30000 nM
- IC50 ([2]; Table 1): < 0.5 nM
- EC50 [3, 9]: 10000 to 100000 nM
- EC50 [3, 10]: 10000 to 100000 nM

Molecule: O=C(COc1cnc(N[C@H]2CC[C@@H](Oc3nc(N4CCOCC4)cc4ncccc34)CC2)nc1)N1CCSCC1 [Compound 73, 2-((2-(((1s,4s)-4-((7-Morpholino-1,6-naphthyridin-5-yl)oxy)cyclohexyl)amino)pyrimidin-5-yl)oxy)-1-thiomorpholinoethan-1-one]
- IC50 [1, 5]: 100 to 1000 nM
- IC50 ([2]; Table 1): 0.5 to 1 nM
- EC50 [3, 9]: 1000 to 10000 nM
- EC50 [3, 10]: 1000 to 10000 nM

Molecule: COCC(=O)N[C@H]1CC[C@@H](Oc2nc(N3CCOCC3)cc3ncccc23)CC1 [Compound 105, 2-Methoxy-N-((1s,4s)-4-((7-morpholino-1,6-naphthyridin-5-yl)oxy)cyclohexyl)acetamide]
- IC50 [1, 5]: 100 to 1000 nM
- IC50 ([2]; Table 1): 1 to 10 nM

Molecule: CN(C)C(=O)COc1cnc(NC2CCC(Oc3nc(N4CCOCC4)cc4ncc(N(Cc5ncc([N+](=O)[O-])n5C)S(C)(=O)=O)cc34)CC2)nc1 (stereo not drawn) [LFA013, N,N-Dimethyl-2-[2-[[4-[[3-[(1-methyl-5-nitro-imidazol-2-yl)methyl-methylsulfonyl-amino]-7-morpholino-1,6-naphthyridin-5-yl]oxy]cyclohexyl]amino]pyrimidin-5-yl]oxy-acetamide]
- IC50 ([1]; Table 2): 1000 to 10000 nM
- IC50 ([2]; Table 2): 10 to 150 nM
- EC50 ([4]; 20 Gy, 5% O2, inner layers, read-out: Prodrug 5% O2 Inner layers EC50): 10 to 500 nM
- EC50 ([4]; 20 Gy, 5% O2, outer layers, read-out: Prodrug 5% O2 Outer layers EC50): 1000 to 10000 nM
- EC50 ([4]; 20 Gy, 20% O2, outer layers, read-out: Prodrug 20% O2 Outer layers EC50): 1000 to 10000 nM
- EC50 ([4]; value of the (unnamed) effector of the listed prodrug, 20 Gy, 5% O2, inner layers, read-out: Effector 5% O2 Inner layers EC50): 10 to 500 nM

Further lines, with some results ahead:

- IC50 [1, 5]: 1000 to 10000 nM
- IC50 ([2]; Table 1): 10 to 150 nM
- EC50 [3, 6]: 10000 to 100000 nM
- EC50 [3, 7]: 10000 to 100000 nM
- EC50 [3, 8]: 10000 to 100000 nM
Molecule: 5-(((1s,4s)-4-(1H-imidazol-1-yl)cyclohexyl)oxy)-7-morpholino-N-propyl-1,6-naphthyridine-3-carboxamide [Compound 169]

- IC50 [1, 5]: 100 to 1000 nM
- IC50 ([2]; Table 1): 1 to 10 nM
Molecule: N#CCC(=O)N[C@H]1CC[C@@H](Oc2nc(N3CCOCC3)cc3ncccc23)CC1 [Compound 107, 2-Cyano-N-((1s,4s)-4-((7-morpholino-1,6-naphthyridin-5-yl)oxy)cyclohexyl)acetamide]

- IC50 [1, 5]: 1000 to 10000 nM
- IC50 ([2]; Table 1): 10 to 150 nM
Molecule: CCOC(=O)c1cnc2cc(N3CCOCC3)nc(O[C@H]3CC[C@@H](n4ccnc4)CC3)c2c1 [Compound 163, ethyl 5-(((1s,4s)-4-(1H-imidazol-1-yl)cyclohexyl)oxy)-7-morpholino-1,6-naphthyridine-3-carboxylate]

- IC50 ([2]; Table 1): 10 to 150 nM
- EC50 [3, 9]: 10000 to 100000 nM
- EC50 [3, 10]: 10000 to 100000 nM
Molecule: O=S(=O)(Nc1cnc2cc(N3CCOCC3)nc(O[C@H]3CC[C@@H](Nc4ncccn4)CC3)c2c1)C1CCCC1 [Compound 190, N-(7-morpholino-5-(((1s,4s)-4-(pyrimidin-2-ylamino)cyclohexyl)oxy)-1,6-naphthyridin-3-yl)cyclopentanesulfonamide]

- IC50 ([1]; Table 2): 10000 to 30000 nM
- IC50 ([2]; Table 2): 10 to 150 nM
Molecule: Cn1c(COC(=O)Nc2cnc3cc(N4CCOCC4)nc(O[C@H]4CC[C@@H](Nc5ncccn5)CC4)c3c2)cnc1[N+](=O)[O-] [LFA108, (3-methyl-2-nitro-imidazol-4-yl)methyl N-[7-morpholino-5-[4-(pyrimidin-2-ylamino)cyclohexoxy]-1,6-naphthyridin-3-yl]carbamate]
- EC50 ([4]; Homo sapiens, HCT-116, 20 Gy, 5% O2, inner layers, read-out: Prodrug 5% O2 Inner layers EC50): 10 to 500 nM
- EC50 ([4]; Homo sapiens, HCT-116, 20 Gy, 5% O2, outer layers, read-out: Prodrug 5% O2 Outer layers EC50): 500 to 1000 nM
- EC50 ([4]; Homo sapiens, HCT-116, 20 Gy, 20% O2, outer layers, read-out: Prodrug 20% O2 Outer layers EC50): 1000 to 10000 nM
